Earlier results on one compound are cited in paper PMC9520775, “Everolimus pharmacokinetics and exposure-response relationship in Japanese patients with advanced breast cancer” (Frontiers in Pharmacology, 2022).

Read-outs that look alike come from different tables or passages of the source.

Details of data set [1]: method as in de Wit et al. (2016). The conditions noted are these: ref de Wit et al. (2016), cited from earlier work.
Details of data set [2]: method as in Miesner et al. (2016). The conditions noted are these: kidney cancer patient, 10 mg everolimus, concomitant clarithromycin 500 mg twice daily for 12 days, acute renal failure; ref Miesner et al. (2016); cited from earlier work.
For data set [3] the following is noted: cited from earlier work.
Where [4] appears, read: patients with breast, kidney and neuroendocrine cancer, ref Deppenweiler et al. (2017).

In the case of `CO[C@H]1C[C@@H]2CC[C@@H](C)[C@@](O)(O2)C(=O)C(=O)N2CCCC[C@H]2C(=O)O[C@H]([C@H](C)C[C@@H]2CC[C@@H](OCCO)[C@H](OC)C2)CC(=O)[C@H](C)/C=C(\C)[C@@H](O)[C@@H](OC)C(=O)[C@H](C)C[C@H](C)/C=C/C=C/C=C/1C` [everolimus], in data set [1] (fixed for all analyses), the “absorption rate constant (Ka)” value is 0.643 h⁻¹. The “clearance (CL), population prior” value in data set [1] (two-compartment model, patients with thyroid cancer) was 20.3 L/h. Moreover, the “trough level of everolimus” value in data set [2] is 110 ng/mL. Further, the “suggested target trough concentration” value in data set [3] (kidney transplant patients, calcineurin-inhibitor-free regimen, ref Shipkova et al., 2016) is 6 to 10 ng/mL; in data set [3] (tuberous sclerosis, ref Combes et al., 2018), 5 to 15 ng/mL. For the same compound, the “trough concentration associated with increased risk of progression” value in data set [3] (setting [4]) was “lower than 11.9 ng/ml”. Also, in data set [3] (setting [4]), the “trough concentration associated with increased risk of toxicity” value is given as “higher than 26.3 ng/ml”. In data set [3] (review, ref Falkowski and Woillard (2019)), the “trough concentration threshold for increased risk of overall severe toxicity” value is given as “higher than 20 ng/ml”. The “increase of risk of toxicity” value in data set [3] (trough concentrations higher than 26.3 ng/ml, ref Deppenweiler et al. (2017)) was 4 fold. The “increase of risk of progression” value in data set [3] (trough concentrations lower than 11.9 ng/ml, ref Deppenweiler et al. (2017)) is given as 3 fold.
